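Cultured in 96-well plates, cells were exposed to test compound for 48 hours across five concentrations. TGI is the concentration that stops growth completely.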
Tests used:
Experiment in all cases: NCI-60 cell line screen, 48 h
SN12C renal = tested on: SN12C renal
NCI-H522 lung = tested on: NCI-H522 lung
SW-620 colon = tested on: SW-620 colon
SK-MEL-5 melanoma = tested on: SK-MEL-5 melanoma
SK-MEL-28 melanoma = tested on: SK-MEL-28 melanoma
CCRF-CEM leukemia = tested on: CCRF-CEM leukemia
PC-3 prostate = tested on: PC-3 prostate
SF-295 CNS = tested on: SF-295 CNS
TK-10 renal = tested on: TK-10 renal
OVCAR-3 ovarian = tested on: OVCAR-3 ovarian
T-47D breast = tested on: T-47D breast
HCT-116 colon = tested on: HCT-116 colon
CAKI-1 renal = tested on: CAKI-1 renal
DU-145 prostate = tested on: DU-145 prostate
MDA-MB-231 breast = tested on: MDA-MB-231 breast
MCF7 breast = tested on: MCF7 breast
HL-60(TB) leukemia = tested on: HL-60(TB) leukemia
SK-MEL-2 melanoma = tested on: SK-MEL-2 melanoma
MDA-MB-435 = tested on: MDA-MB-435
HCC-2998 colon = tested on: HCC-2998 colon

Row | SMILES | TGI (SN12C renal) [µM] | TGI (NCI-H522 lung) [µM] | TGI (SW-620 colon) [µM] | TGI (SK-MEL-5 melanoma) [µM] | TGI (SK-MEL-28 melanoma) [µM] | TGI (CCRF-CEM leukemia) [µM] | TGI (PC-3 prostate) [µM] | TGI (SF-295 CNS) [µM] | TGI (TK-10 renal) [µM] | TGI (OVCAR-3 ovarian) [µM] | TGI (T-47D breast) [µM] | TGI (HCT-116 colon) [µM] | TGI (CAKI-1 renal) [µM] | TGI (DU-145 prostate) [µM] | TGI (MDA-MB-231 breast) [µM] | TGI (MCF7 breast) [µM] | TGI (HL-60(TB) leukemia) [µM] | TGI (SK-MEL-2 melanoma) [µM] | TGI (MDA-MB-435) [µM] | TGI (HCC-2998 colon) [µM]
1 | C#CCn1c(=O)c(Cl)cn(/C(=C/C(=O)OCC)C(=O)OCC)c1=O | 50.6 | 12.6 | 5.46 | 30.6 | 38.9 | 13.3 | 31.5 | > 66.7 | 8.09 | 11.7 | 5.27 | 14.4 | 7.37 | 33 | 35.1 | 22.7 | 8.21 | 35.6 | 35.8 | –
2 | c1ccc(-c2cc(-c3cccs3)c(-c3cccs3)o2)cc1 | > 100 | – | > 100 | > 100 | > 100 | > 100 | > 100 | > 100 | > 100 | > 100 | > 100 | > 100 | > 100 | > 100 | > 100 | > 100 | > 100 | > 100 | > 100 | > 100
3 | CCSc1nc(N)c2c(-c3ccccc3)c3c(nc2n1)CCC3 | > 100 | – | > 100 | > 100 | > 100 | > 100 | > 100 | > 100 | > 100 | > 100 | > 100 | > 100 | > 100 | > 100 | > 100 | > 100 | > 100 | – | > 100 | –
4 | Cc1cc2nc(N3C(=O)/C(=C/c4ccc(Cl)cc4)N=C3c3ccccc3)sc2cc1C | 87.6 | – | > 100 | 43.6 | > 100 | 38.7 | 98.9 | > 100 | > 100 | 50 | > 100 | 53.9 | > 100 | > 100 | > 100 | > 100 | 51.7 | 89.8 | 30.7 | 48.5
5 | CCN1CCC(O)(c2ccc(Oc3ccc(C)cc3)cc2)C(C(=O)c2ccc(Oc3ccc(C)cc3)cc2)C1 (stereo not drawn) | 30.7 | – | 27.7 | 20.4 | 23.3 | 21.8 | 24.5 | 21.4 | 20.8 | 36.9 | 33.7 | 19 | 25.8 | 20.1 | 20.4 | 8.41 | 3.7 | 35.9 | 24.9 | 20.8
6 | NC1CC(=O)c2sccc21 (stereo not drawn) | > 100 | > 100 | > 100 | > 100 | > 100 | > 100 | > 100 | > 100 | > 100 | > 100 | > 100 | > 100 | > 100 | > 100 | > 100 | > 100 | – | 79.3 | > 100 | > 100
7 | CC(=O)Oc1ccc(/C=C/C(=O)O[C@H]2CCCC[C@@H]2OC(=O)/C=C/c2ccc(OC(C)=O)c(OC(C)=O)c2)cc1OC(C)=O | 29.8 | 22.3 | 10.6 | 15.1 | 33.1 | 16.9 | > 100 | 19 | 63.2 | 95.7 | 47.1 | 20.3 | > 100 | 33.7 | > 100 | 42.9 | – | 53.1 | 32.7 | 32.6
8 | N#Cc1nc(CCC(c2nc(C#N)c(N)o2)N2C(=O)c3ccccc3C2=O)oc1N (stereo not drawn) | > 100 | > 100 | > 100 | > 100 | > 100 | – | > 100 | > 100 | > 100 | > 100 | > 100 | > 100 | > 100 | > 100 | > 100 | > 100 | > 100 | > 100 | > 100 | > 100
9 | O=C1c2ccccc2-c2nc(/C=C/c3ccccc3)cc3c2c1nc1ccccc13 | > 100 | 30.2 | 85.6 | 8.8 | 44.6 | > 100 | > 100 | > 100 | > 100 | 3.95 | > 100 | > 100 | > 100 | > 100 | 74 | > 100 | – | > 100 | 26.9 | 64.6
10 | COc1cc2c(cc1OCCCC(=O)Nc1cc(C(=O)NCCCN(C)C)n(C)n1)N=CC1CCCN1C2=O (stereo not drawn) | > 24.6 | 15.1 | > 25 | 14 | 11.1 | – | 50.4 | > 100 | 14.9 | 74.2 | > 100 | > 37.7 | 50.9 | > 41.6 | > 39.9 | > 80.7 | 0.24 | 32.7 | > 100 | 28.3
